How the values were obtained:
PRC2 [1] = target: T1, PRC2 (Homo sapiens, UniProt Q15910); assay: PRC2 inhibition, scintillation methyltransferase assay with H3; format: biochemical; details: peptide 50 μM; substrate peptide 20 μM; 3H-SAM scintillation assay
PRC2 [2] = target: T1, PRC2; format: biochemical; details: mononucleosome substrates; Figure 2C
[3] = target: polycomb repressor complex 2 (PRC2) (human (purified from HeLa cells)) (UniProt Q15910)
[4] = target: polycomb repressor complex 2 (PRC2) (human (purified from HeLa cells)) (UniProt Q15910); assay: methyltransferase inhibition kinetics
[5] = target: polycomb repressor complex 2 (PRC2) (human (purified from HeLa cells)) (UniProt Q15910); remark: listed apart in the source

T1 sequence (Q15910 whole entry): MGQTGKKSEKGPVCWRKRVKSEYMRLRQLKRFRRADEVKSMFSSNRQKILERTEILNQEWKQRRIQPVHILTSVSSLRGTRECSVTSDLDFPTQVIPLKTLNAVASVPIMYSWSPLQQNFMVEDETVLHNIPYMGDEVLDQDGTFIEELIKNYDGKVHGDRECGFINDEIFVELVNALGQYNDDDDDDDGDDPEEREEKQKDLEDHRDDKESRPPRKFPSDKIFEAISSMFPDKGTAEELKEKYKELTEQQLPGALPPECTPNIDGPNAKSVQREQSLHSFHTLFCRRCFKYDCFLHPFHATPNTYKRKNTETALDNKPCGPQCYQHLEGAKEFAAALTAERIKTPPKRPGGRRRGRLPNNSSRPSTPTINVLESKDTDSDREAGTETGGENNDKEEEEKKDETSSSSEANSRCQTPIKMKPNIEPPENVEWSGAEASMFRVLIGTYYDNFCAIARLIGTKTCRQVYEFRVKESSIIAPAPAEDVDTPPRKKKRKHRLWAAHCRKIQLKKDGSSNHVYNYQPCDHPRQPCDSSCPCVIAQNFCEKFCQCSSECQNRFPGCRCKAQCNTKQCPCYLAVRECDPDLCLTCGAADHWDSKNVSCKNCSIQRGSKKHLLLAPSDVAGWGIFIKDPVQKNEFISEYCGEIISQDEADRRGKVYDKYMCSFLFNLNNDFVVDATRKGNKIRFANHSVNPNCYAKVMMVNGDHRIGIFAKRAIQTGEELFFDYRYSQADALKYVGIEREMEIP
T1 sequence (O75530 whole entry partner): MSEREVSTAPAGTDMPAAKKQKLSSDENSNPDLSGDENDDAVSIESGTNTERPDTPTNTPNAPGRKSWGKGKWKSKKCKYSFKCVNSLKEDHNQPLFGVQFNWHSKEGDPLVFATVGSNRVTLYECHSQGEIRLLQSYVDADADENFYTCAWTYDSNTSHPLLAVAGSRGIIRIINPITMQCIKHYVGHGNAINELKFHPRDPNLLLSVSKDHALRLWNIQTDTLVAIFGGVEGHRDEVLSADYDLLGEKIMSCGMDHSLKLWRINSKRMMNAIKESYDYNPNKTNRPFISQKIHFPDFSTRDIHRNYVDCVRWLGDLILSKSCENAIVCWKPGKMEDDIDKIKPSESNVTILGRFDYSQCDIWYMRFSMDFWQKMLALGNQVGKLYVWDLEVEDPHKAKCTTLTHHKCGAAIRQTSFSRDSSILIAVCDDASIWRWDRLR
T1 sequence (Q15022 whole entry partner): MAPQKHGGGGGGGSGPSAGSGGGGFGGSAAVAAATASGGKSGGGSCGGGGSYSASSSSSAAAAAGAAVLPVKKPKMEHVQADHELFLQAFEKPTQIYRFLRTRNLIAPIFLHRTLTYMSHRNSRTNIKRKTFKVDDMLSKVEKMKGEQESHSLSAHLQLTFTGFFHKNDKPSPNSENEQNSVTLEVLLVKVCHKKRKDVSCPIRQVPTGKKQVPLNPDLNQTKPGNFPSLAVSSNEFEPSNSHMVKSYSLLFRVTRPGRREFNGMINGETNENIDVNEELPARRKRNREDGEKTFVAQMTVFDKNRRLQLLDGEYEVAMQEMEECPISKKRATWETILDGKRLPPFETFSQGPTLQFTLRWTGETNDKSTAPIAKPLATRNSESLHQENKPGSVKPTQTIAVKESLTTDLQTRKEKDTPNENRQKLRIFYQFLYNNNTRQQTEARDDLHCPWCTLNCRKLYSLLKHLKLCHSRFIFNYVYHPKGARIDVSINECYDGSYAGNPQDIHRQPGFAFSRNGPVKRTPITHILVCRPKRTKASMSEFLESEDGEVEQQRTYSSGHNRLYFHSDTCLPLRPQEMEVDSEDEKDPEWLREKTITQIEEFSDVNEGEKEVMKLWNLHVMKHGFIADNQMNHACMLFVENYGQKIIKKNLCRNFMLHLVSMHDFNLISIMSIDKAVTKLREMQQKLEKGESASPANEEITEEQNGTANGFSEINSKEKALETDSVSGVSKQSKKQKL
T1 sequence (Q09028 whole entry partner): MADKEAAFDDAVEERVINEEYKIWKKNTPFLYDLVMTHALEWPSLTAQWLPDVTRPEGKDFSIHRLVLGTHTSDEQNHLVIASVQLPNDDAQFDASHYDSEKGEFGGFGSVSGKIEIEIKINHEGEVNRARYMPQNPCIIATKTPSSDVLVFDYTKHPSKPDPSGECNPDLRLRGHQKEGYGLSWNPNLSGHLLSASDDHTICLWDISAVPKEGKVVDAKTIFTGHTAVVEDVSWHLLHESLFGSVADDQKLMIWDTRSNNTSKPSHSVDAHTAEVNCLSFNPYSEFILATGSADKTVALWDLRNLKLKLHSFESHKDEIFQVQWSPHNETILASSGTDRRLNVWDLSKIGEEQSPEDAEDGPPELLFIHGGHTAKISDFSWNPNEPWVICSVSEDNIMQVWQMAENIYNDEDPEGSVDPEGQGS

| Substance | inhibition of PRC2 methyltransferase activity, in words (PRC2 [1]) | also measured |
| --- | --- | --- |
| KAARXSAPSTGG [compound 3] | complete inhibition | – |
| H3 1-10-GGG-H3 21-37 [compound 39] | – | inhibition by bitopic constructs, in words (PRC2 [2]): outperformed longer linkers |
| H3K27M mutant mononucleosome (from UniProt P84243 1-136) (complex) | – | IC50 of inhibition of PRC2 methylation of mononucleosome substrates [3]: 2.6 nM; Ki [4]: 2.1 nM |
| KAARXSAPSTGG [compound 4] | did not provide measurable inhibition | – |
| H3.3(23-34) peptide 18 (trifluoro-methionine at residue 27) | – | IC50 of inhibition of PRC2 methyltransferase activity (Figure S2A) [5]: 11000 nM |

More lines, main results first:

| inhibition of PRC2 methyltransferase activity, in words (PRC2 [1]) | Substance | also measured |
| --- | --- | --- |
| modest loss of inhibition | KAARXSAPSTGG [compound 16] | – |
| modest loss in activity | KAARXSAPSTGG [compound 5] | – |
| abolished inhibition | KAARXSAPSTGG [compound 17] | – |
| did not provide measurable inhibition | KAARXSAPSTGG [compound 8] | – |
| did not provide measurable inhibition | KAARXSAPSTGG [compound 7] | – |
